# “And” between values parts separate entries of the source, which are not always exact repeats. Identical values can stand only once. Like-named read-outs stand apart in the source and are kept apart here.
# Experiments:
# [1] = molecular target: PSD-95 PDZ1-2 (Homo sapiens, UniProt P78352); assay: In vitro fluorescence polarization (FP) competition binding assay, in TBS and modified with 1% HSA
# Protocol: Affinity to PSD-95 was measured using an in vitro fluorescence polarization (FP) assay as described by Bach et al (PNAS USA, 2012, 109, 3317-3322). First, a saturation binding curve was obtained to determine KD values for the interaction between a dimeric fluorescent probe and PSD-95 PDZ1-2. Increasing concentrations of PDZ1-2 were added to a constant concentration (0.5 nM) of the probe. The fluorescence polarization of the samples was measured at excitation/emission wavelengths of 635/670 nm and the FP values were fitted to a one site binding model using the program GraphPad Prism. […] The FP values were fitted to a one site competition (variable slope) model in GraphPad Prism. The resulting IC50 were converted to competition inhibition constants, Ki values, as described (Nikolovska-Coleska et al, Anal Biochem, 2004, 332, 261-273). The modified FP assay was conducted as described above with 1% HSA in the assay. The synthesized FA-linked dimeric ligands were evaluated for their affinity to PSD-95 PDZ1-2 in the FP assay. […] We first measured the affinities using a simple tris-buffered saline (TBS) buffer (Table 2, FIG. 3A); but furthermore, we investigated if HSA influenced the ability of the FA-linked dimers to bind PSD95 PDZ1-2 by conducting the FP assay with HSA present in the assay buffer (Table 2, FIG. 3B). […] For a traditional small-molecule drug, it is commonly accepted that the unbound fraction of the drug is free to diffuse across membranes and exerts the physiological effect by interacting with its target (Berezhkovskiy et al, J Pharm Sci 2007, 96, 249-257). I.e. if the drug is bound to another molecule, then it cannot interact with the target at the same time.
# [2] = molecular target: T1, HSA (Homo sapiens, UniProt P02768); assay: Transil XL HSA binding assay (immobilized HSA, unbound compound quantified by RP-HPLC)
# T1 construct: purchased Sovicell GMBH, Leipzig, Germany
# T1 sequence (P02768 25-609): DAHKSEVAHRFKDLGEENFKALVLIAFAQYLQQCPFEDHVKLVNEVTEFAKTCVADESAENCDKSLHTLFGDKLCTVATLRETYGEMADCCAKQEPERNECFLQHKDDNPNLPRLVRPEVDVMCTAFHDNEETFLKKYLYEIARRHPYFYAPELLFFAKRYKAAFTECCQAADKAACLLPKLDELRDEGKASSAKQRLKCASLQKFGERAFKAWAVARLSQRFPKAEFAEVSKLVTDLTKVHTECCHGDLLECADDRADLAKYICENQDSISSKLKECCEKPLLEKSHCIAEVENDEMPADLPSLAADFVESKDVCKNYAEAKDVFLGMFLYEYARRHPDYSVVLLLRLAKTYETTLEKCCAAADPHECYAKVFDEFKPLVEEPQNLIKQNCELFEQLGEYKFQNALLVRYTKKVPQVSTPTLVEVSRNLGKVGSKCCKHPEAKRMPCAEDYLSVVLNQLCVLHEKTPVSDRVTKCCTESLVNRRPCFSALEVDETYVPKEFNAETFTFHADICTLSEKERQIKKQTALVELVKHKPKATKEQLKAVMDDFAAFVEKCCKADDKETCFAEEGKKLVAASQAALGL
# Protocol: The synthesized FA-linked dimeric ligands (1-12) were evaluated for their HSA affinity using a Transil^XL HSA binding assay kit (Sovicell GMBH, Leipzig, Germany). […] The assay kit consisted of prefilled wells with increasing concentrations of immobilized HSA as well as two control wells without HSA. The HSA had been immobilized in a random fashion to ensure that all binding sites on HSA were available. To conduct the assay, the wells were incubated with a known concentration of the tested compounds, and the unbound amount of compound was quantified using analytical RP-HPLC (C8 column). The fraction of unbound drug (fu) for each data point was calculated from the RP-HPLC data by comparison to a control sample without HSA. […] In eq. 1, it is assumed that the concentration of drug-bound HSA ([HSA-D]) is much lower than the total concentration of HSA in the well ([HSA-D]<<cHSA). The assay kit has been designed such that the assumption is valid for compounds where fu>1%. The calculated KD-values were used to calculate fb at physiological concentration of HSA (588 μM) using equation 2.
# [3] = FP in TBS with 1% HSA (~150 μM), mean ± SEM, n ≧ 3, read-out: Ki(PSD95) + HSA
# Sequence of PSD-95 PDZ1-2 (P78352 61-249 limits assumed): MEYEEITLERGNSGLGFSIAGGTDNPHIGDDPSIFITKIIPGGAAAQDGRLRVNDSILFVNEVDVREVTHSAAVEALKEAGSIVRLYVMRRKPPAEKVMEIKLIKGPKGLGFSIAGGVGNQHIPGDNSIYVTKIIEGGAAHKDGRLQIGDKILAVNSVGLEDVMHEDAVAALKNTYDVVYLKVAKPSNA
fraction unbound [2],SMILES,further results
0.078,CCCCCCCCCCCCCCCCCC(=O)NCCCCC(=O)N(CCOCCOCCC(=O)N[C@H](C(=O)N[C@@H](CCC(=O)O)C(=O)N[C@H](C(=O)N[C@@H](C)C(=O)N[C@H](C(=O)O)C(C)C)[C@@H](C)O)[C@@H](C)CC)CCOCCOCCC(=O)N[C@H](C(=O)N[C@@H](CCC(=O)O)C(=O)N[C@H](C(=O)N[C@@H](C)C(=O)N[C@H](C(=O)O)C(C)C)[C@@H](C)O)[C@@H](C)CC [Compound 11],"Ki [1, 3]: 1.89 ± 0.1 µM"
0.271,CCCCCCCCCCCC(=O)NCCCCC(=O)N(CCOCCOCCC(=O)N[C@H](C(=O)N[C@@H](CCC(=O)O)C(=O)N[C@H](C(=O)N[C@@H](C)C(=O)N[C@H](C(=O)O)C(C)C)[C@@H](C)O)[C@@H](C)CC)CCOCCOCCC(=O)N[C@H](C(=O)N[C@@H](CCC(=O)O)C(=O)N[C@H](C(=O)N[C@@H](C)C(=O)N[C@H](C(=O)O)C(C)C)[C@@H](C)O)[C@@H](C)CC [Compound 9],–
0.031,CCCCCCCCCCCCCCCCCC(=O)NCCCC(=O)N(CCOCCOCCC(=O)N[C@H](C(=O)N[C@@H](CCC(=O)O)C(=O)N[C@H](C(=O)N[C@@H](C)C(=O)N[C@H](C(=O)O)C(C)C)[C@@H](C)O)[C@@H](C)CC)CCOCCOCCC(=O)N[C@H](C(=O)N[C@@H](CCC(=O)O)C(=O)N[C@H](C(=O)N[C@@H](C)C(=O)N[C@H](C(=O)O)C(C)C)[C@@H](C)O)[C@@H](C)CC [Compound 3],"Ki ([1]; FP data (TBS+HSA) corrected for calculated fu, read-out: Ki(PSD95), free ligand): 0.0572 µM; Ki [1, 3]: 1.89 ± 0.155 µM; Ki ([1]; FP in TBS, mean ± SEM, n ≧ 3, read-out: Ki(PSD95)): 0.0111 µM; Kd [2]: 4.8 µM"
0.186,CC[C@H](C)[C@H](NC(=O)CCOCCOCCN(CCOCCOCCC(=O)N[C@H](C(=O)N[C@@H](CCC(=O)O)C(=O)N[C@H](C(=O)N[C@@H](C)C(=O)N[C@H](C(=O)O)C(C)C)[C@@H](C)O)[C@@H](C)CC)C(=O)CC[C@H](NC(=O)CCCCCCCCCCCCCCCCC(=O)O)C(=O)O)C(=O)N[C@@H](CCC(=O)O)C(=O)N[C@H](C(=O)N[C@@H](C)C(=O)N[C@H](C(=O)O)C(C)C)[C@@H](C)O [Compound 8],–
0.147,CCCCCCCCCCCC(=O)N[C@@H](CCC(=O)N(CCOCCOCCC(=O)N[C@H](C(=O)N[C@@H](CCC(=O)O)C(=O)N[C@H](C(=O)N[C@@H](C)C(=O)N[C@H](C(=O)O)C(C)C)[C@@H](C)O)[C@@H](C)CC)CCOCCOCCC(=O)N[C@H](C(=O)N[C@@H](CCC(=O)O)C(=O)N[C@H](C(=O)N[C@@H](C)C(=O)N[C@H](C(=O)O)C(C)C)[C@@H](C)O)[C@@H](C)CC)C(=O)O [Compound 5],–
0.247,CC[C@H](C)[C@H](NC(=O)CCOCCOCCN(CCOCCOCCC(=O)N[C@H](C(=O)N[C@@H](CCC(=O)O)C(=O)N[C@H](C(=O)N[C@@H](C)C(=O)N[C@H](C(=O)O)C(C)C)[C@@H](C)O)[C@@H](C)CC)C(=O)CCCNC(=O)CCCCCCCCCCC(=O)O)C(=O)N[C@@H](CCC(=O)O)C(=O)N[C@H](C(=O)N[C@@H](C)C(=O)N[C@H](C(=O)O)C(C)C)[C@@H](C)O [Compound 2],–
0.268,CCCCCCCCCCCCCCCCCC(=O)N[C@@H](CCC(=O)N(CCOCCOCCC(=O)N[C@H](C(=O)N[C@@H](CCC(=O)O)C(=O)N[C@H](C(=O)N[C@@H](CC(=O)O)C(=O)N[C@H](C(=O)O)C(C)C)[C@@H](C)O)[C@@H](C)CC)CCOCCOCCC(=O)N[C@H](C(=O)N[C@@H](CCC(=O)O)C(=O)N[C@H](C(=O)N[C@@H](CC(=O)O)C(=O)N[C@H](C(=O)O)C(C)C)[C@@H](C)O)[C@@H](C)CC)C(=O)O [Compound 15],Kd [2]: 55 ± 3.4 µM
0.436,CC[C@H](C)[C@H](NC(=O)CCOCCOCCN(CCOCCOCCC(=O)N[C@H](C(=O)N[C@@H](CCC(=O)O)C(=O)N[C@H](C(=O)N[C@@H](CC(=O)O)C(=O)N[C@H](C(=O)O)C(C)C)[C@@H](C)O)[C@@H](C)CC)C(=O)CCCNC(=O)CCCCCCCCCCCCCCCCC(=O)O)C(=O)N[C@@H](CCC(=O)O)C(=O)N[C@H](C(=O)N[C@@H](CC(=O)O)C(=O)N[C@H](C(=O)O)C(C)C)[C@@H](C)O [Compound 14],Kd [2]: 116 ± 7.6 µM
0.615,CC[C@H](C)[C@H](NC(=O)CCOCCOCCN(CCOCCOCCC(=O)N[C@H](C(=O)N[C@@H](CCC(=O)O)C(=O)N[C@H](C(=O)N[C@@H](C)C(=O)N[C@H](C(=O)O)C(C)C)[C@@H](C)O)[C@@H](C)CC)C(=O)CCCCNC(=O)CCCCCCCCCCC(=O)O)C(=O)N[C@@H](CCC(=O)O)C(=O)N[C@H](C(=O)N[C@@H](C)C(=O)N[C@H](C(=O)O)C(C)C)[C@@H](C)O [Compound 10],–
–,"CC[C@H](C)[C@H](NC(=O)CCOCCOCCN(CCOCCOCCC(=O)N[C@H](C(=O)N[C@@H](CCC(=O)O)C(=O)N[C@H](C(=O)N[C@@H](CC(=O)O)C(=O)N[C@H](C(=O)O)C(C)C)[C@@H](C)O)[C@@H](C)CC)C(=O)[C@H](CCCNC(=N)N)NC(=O)[C@H](CCCNC(=N)N)NC(=O)[C@H](CCCNC(=N)N)NC(=O)[C@H](CCC(N)=O)NC(=O)[C@H](CCCNC(=N)N)NC(=O)[C@H](CCCNC(=N)N)NC(=O)[C@H](CCCCN)NC(=O)[C@H](CCCCN)NC(=O)[C@H](CCCNC(=N)N)NC(=O)CNC(=O)[C@@H](N)Cc1ccc(O)cc1)C(=O)N[C@@H](CCC(=O)O)C(=O)N[C@H](C(=O)N[C@@H](CC(=O)O)C(=O)N[C@H](C(=O)O)C(C)C)[C@@H](C)O [UCCB01-144, reference compound]","fb (%), HSA bound fraction ([2]; calculated from KD at physiological concentration of HSA (588 μM), equation 2): 65% and 65.3 ± 2.9%; fraction unbound ([2]; calculated from equation 2 at HSA concentration of 150 μM, read-out: fu (%), calculated fraction of unbound drug): 0.679; Kd ([2]; mean ± SEM, n = 3, read-out: KD(HSA)): 318 µM"
0.301,CC[C@H](C)[C@H](NC(=O)CCOCCOCCN(CCOCCOCCC(=O)N[C@H](C(=O)N[C@@H](CCC(=O)O)C(=O)N[C@H](C(=O)N[C@@H](C)C(=O)N[C@H](C(=O)O)C(C)C)[C@@H](C)O)[C@@H](C)CC)C(=O)CC[C@H](NC(=O)CCCCCCCCCCC(=O)O)C(=O)O)C(=O)N[C@@H](CCC(=O)O)C(=O)N[C@H](C(=O)N[C@@H](C)C(=O)N[C@H](C(=O)O)C(C)C)[C@@H](C)O [Compound 6],–
0.083,CC[C@H](C)[C@H](NC(=O)CCOCCOCCN(CCOCCOCCC(=O)N[C@H](C(=O)N[C@@H](CCC(=O)O)C(=O)N[C@H](C(=O)N[C@@H](C)C(=O)N[C@H](C(=O)O)C(C)C)[C@@H](C)O)[C@@H](C)CC)C(=O)CCCCNC(=O)CCCCCCCCCCCCCCCCC(=O)O)C(=O)N[C@@H](CCC(=O)O)C(=O)N[C@H](C(=O)N[C@@H](C)C(=O)N[C@H](C(=O)O)C(C)C)[C@@H](C)O [Compound 12],–

# Source: US20160303245A1, “FATTY ACID DERIVATIVES OF DIMERIC INHIBITORS OF PSD-95” (UNIVERSITY OF COPENHAGEN, priority 2013, published 2016)
